Experiments:
[1] = target: T1, Cj1438C (C-terminal domain of Cj1438) (Campylobacter jejuni, UniProt Q0P8H6); assay: product analysis by ESI-MS, 1H and […] NMR; type: biochemical; details: 5.0 mM ATP, 10 mM MgCl2, 50 mM NH4HCO3, pH 8.0, 25 °C, 4 h
T1 construct: C-terminal hexahistidine tag (pET31b(+)); E. coli; 40,084 Da

[2] = system: CO[C@@H]1O[C@H](CO)[C@@H](O)[C@H]1O; assay: purified protein; details: 2.0 mM UDP-D-GlcA fixed, 0-25 mM substrate, 10 μM enzyme, 50 mM NH4HCO3, pH 8.0, 25 °C

T1 sequence (Q0P8H6 entry or part of it): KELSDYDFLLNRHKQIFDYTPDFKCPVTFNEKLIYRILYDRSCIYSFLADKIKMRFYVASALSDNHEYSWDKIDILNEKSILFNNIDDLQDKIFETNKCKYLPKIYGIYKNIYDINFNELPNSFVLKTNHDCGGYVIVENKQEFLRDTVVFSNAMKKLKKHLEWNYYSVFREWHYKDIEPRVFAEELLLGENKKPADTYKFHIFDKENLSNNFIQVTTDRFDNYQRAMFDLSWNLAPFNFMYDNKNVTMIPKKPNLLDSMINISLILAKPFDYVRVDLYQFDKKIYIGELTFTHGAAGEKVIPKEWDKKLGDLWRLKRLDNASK

N[C@@H](CO)COP(=O)(O)O [(S)-serinol phosphate]
product analysis by ESI-MS, 1H and 31P NMR ([1]; 5.0 mM compound 7a): Incubation of Cj1438C with ATP, MgCl2, compound 7a, and (S)-serinol-P resulted in the formation

Cj1432N (N-terminal domain of Cj1432) (Campylobacter jejuni subsp. jejuni NCTC 11168 = ATCC 700819)
Km [2]: 970 ± 90 µM | kcat [2]: 0.0085 ± 0.00017 s⁻¹

CO[C@@H]1O[C@H](CO)[C@@H](O)[C@H]1O[C@H]1O[C@H](C(=O)O)[C@@H](O)[C@H](O)[C@H]1O [7a, compound 7a]
product analysis by ESI-MS, 1H and 31P NMR ([1]; 5.0 mM (S)-serinol phosphate): Incubation of Cj1438C with ATP, MgCl2, compound 7a, and (S)-serinol-P resulted in the formation

Source: publication PMC11800397, “Identification of the Polymerizing Glycosyltransferase Required for the Addition of D-Glucuronic Acid to the Capsular Polysaccharide of Campylobacter jejuni” (Biochemistry, 2025)
